# Measurements reported in PubChem BioAssay AID624130 (National Center for Advancing Translational Sciences (NCATS), 2012).
# System: aqueous kinetic solubility, pH 7.4 phosphate buffer, LC-UV/MS
# Assay: qHTS Assay to Find Inhibitors of T. brucei phosphofructokinase: Aqueous Kinetic Solubility
# Settings: stronger effect = higher value
smiles,measurement,value
O=C(Cc1ccc(Cl)c(Cl)c1)Nc1ccc(S(=O)(=O)Nc2ccon2)cc1,solubility,150 µM
